According to patent US9771326B2, “S1P and/or ATX modulating agents” (BIOGEN MA INC., priority 2012, dated 2017):

Legend:
A2B5+ OPCs = assay: OPC differentiation assay; assay type: cell-based, Sprague Dawley rats; conditions: 72 h; rat OPCs in CNTF/T3 media, 3-day incubation, MSD analysis; read-out: positive in the OPC assay (concentration)
Description: OPC Differentiation Assay
Enriched populations of oligodendrocytes were grown from post-natal day 2 (P2) female Sprague Dawley rats. The forebrain was dissected out and placed in Hank's buffered saline solution (HBSS; Invitrogen, Grand Island, N.Y.). The tissue was cut into 1 mm fragments and incubated at 37° C. for 15 minutes in 0.01% trypsin and 10 μg/mL DNase. Dissociated cells were plated on poly-L-lysine-coated T75 tissue culture flasks and grown at 37° C. for 10 days in Dulbecco's modified Eagle's medium (DMEM) with 20% fetal calf serum (Invitrogen). A2B5^+ OPCs were collected by shaking the flask overnight at 200 rpm and 37° C., resulting in a 95% pure population.
For the differentiation assay, 2 μM and 20 μM antagonist or the same concentrations of vehicle (DMSO) were applied to OPCs cultured in CNTF/T3 containing media. After a 3-day incubation, after a 3-day incubation, cell were lysed and then subjected to MSD (Meso Scale Discovery-R) analysis. EC50 was calculated by Prism using a nonlinear sigmoidal dose-response curve cells. Alternatively, cells were lysed in 80 μL lysis buffer (50 mM HEPES [4-(2-hydroxyethyl)-1-piperazine ethanesulfonic acid], pH 7.5, 150 mM NaCl, 1.5 mM MgCl2, 1 mM ethylene glycol tetraacetic acid [EGTA], 1% Triton X-100 and 10% glycerol) for 30 minutes at 4° C. After centrifugation at 14,000 g for 15 minutes, the supernatants were boiled in Laemmli sample buffer, subjected to 4-20% SDS-PAGE, and analyzed by Western blotting with anti-MBP, anti-myelin-associated glycoprotein (MAG), or anti-beta actin antibodies. The secondary antibodies used were anti-mouse IgG-HRP (horseradish peroxidase) and anti-rabbit IgG-HRP respectively.

S1P4 = target: T1, S1P4 (Homo sapiens, UniProt O95977); assay: S1P receptor calcium flux assay, agonist format (S1P4); assay type: cell-based; conditions: FLIPR TETRA
T1 sequence (O95977 1-384): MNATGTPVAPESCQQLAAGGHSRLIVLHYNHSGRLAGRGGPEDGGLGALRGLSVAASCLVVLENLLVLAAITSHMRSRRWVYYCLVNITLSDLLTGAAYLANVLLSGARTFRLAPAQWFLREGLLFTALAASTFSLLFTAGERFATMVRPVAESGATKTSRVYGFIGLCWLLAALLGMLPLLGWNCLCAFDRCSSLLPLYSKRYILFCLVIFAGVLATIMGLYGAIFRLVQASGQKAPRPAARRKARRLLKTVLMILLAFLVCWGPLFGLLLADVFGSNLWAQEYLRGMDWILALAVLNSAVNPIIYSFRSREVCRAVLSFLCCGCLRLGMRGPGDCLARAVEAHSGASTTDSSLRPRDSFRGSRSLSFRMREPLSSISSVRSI
Description: (§1) S1P Receptor Activity Assays Agonist percentage activation determinations were obtained by assaying sample compounds and referencing the Emax control for each receptor profiled. Antagonist percentage inhibition determinations were obtained by assaying sample compounds and referencing the control EC80 wells for each receptor profiled. The samples were run using a “Single Addition” assay protocol for the agonist and antagonist assay run. The protocol design was as follows: Compound Preparation Master stock solution: Unless specified otherwise, all sample compounds were diluted in 100% anhydrous DMSO including all serial dilutions. All control wells contained identical solvent final concentrations as did the sample compound wells. Compound plate for assay: The sample compounds were transferred from a master stock solution into a daughter plate that was used in the assay. Each sample compound was diluted into assay buffer (1×HBSS with 20 mM HEPES and 2.5 mM Probenecid) at an appropriate concentration to obtain final concentrations. […] Assay was read for 180 seconds using the FLIPR^TETRA (This assay run added sample compounds and reference agonist to respective wells). […] Once baseline corrections were processed, maximum fluorescence values were exported and data manipulated to calculate percentage activation, percentage inhibition and Z′.

S1P3 = S1P3 (Homo sapiens, UniProt Q99500); assay: S1P receptor calcium flux assay, agonist format (S1P3); assay type: cell-based; conditions: FLIPR TETRA
Description: as §1

S1P3, sequence (Q99500 whole entry): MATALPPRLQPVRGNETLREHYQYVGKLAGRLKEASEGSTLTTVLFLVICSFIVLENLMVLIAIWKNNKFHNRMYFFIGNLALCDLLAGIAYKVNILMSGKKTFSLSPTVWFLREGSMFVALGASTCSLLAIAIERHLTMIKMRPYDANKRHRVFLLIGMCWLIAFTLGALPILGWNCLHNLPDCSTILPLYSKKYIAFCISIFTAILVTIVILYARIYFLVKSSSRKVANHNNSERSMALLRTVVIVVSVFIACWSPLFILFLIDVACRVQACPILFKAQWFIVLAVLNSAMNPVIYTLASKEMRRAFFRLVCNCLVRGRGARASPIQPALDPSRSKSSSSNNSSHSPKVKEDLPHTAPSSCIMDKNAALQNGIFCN

| Structure (SMILES) | minimal effective concentration (A2B5+ OPCs) | other results |
| --- | --- | --- |
| CC(C)(C)[C@H]1CC[C@H](Oc2cccc(-c3cccc(CNCCC(=O)O)c3)c2)CC1 [Example 4, 3-(((3′-((trans-4-(tert-Butyl)cyclohexyl)oxy)-[1,1′-biphenyl]-3-yl)methyl)amino)propanoic acid] | 0.5 to 5 µM |  |
| CC(C)(C)[C@H]1CC[C@H](Oc2ccc(-c3cccc(CNC4CC(C(=O)O)C4)c3)cc2)CC1 (stereo partly drawn) [Example 10, 3-(((4′-((trans-4-(tert-Butyl)cyclohexyl)oxy)-[1,1′-biphenyl]-3-yl)methyl)amino)cyclobutanecarboxylic acid] | 0.5 to 5 µM |  |
| CC(C)(C)[C@H]1CC[C@H](Oc2ccc(-c3ccc(CNCCC(=O)O)cc3)cc2)CC1 [Example 24, 3-((4′-(trans-4-tert-Butylcyclohexyloxy)biphenyl-4-yl)methylamino)propanoic acid] | 0.5 to 5 µM |  |
| CC(C)(C)[C@H]1CC[C@H](n2nc(-c3cccc(CNCCC(=O)O)c3)ccc2=O)CC1 [Example 48, 3-((3-(1-(trans-4-(tert-butyl)cyclohexyl)-6-oxo-1,6-dihydropyridazin-3-yl)benzyl)amino)propanoic acid] |  | S1P4 agonist activity EC50 (S1P4): 1 to 5000 nM |
| CC(C)(C)[C@H]1CC[C@H](Oc2cnc(-c3cccc(CNCCC(=O)O)c3)nc2)CC1 [Example 50, 3-(3-(5-(trans-4-tert-Butylcyclohexyloxy)pyrimidin-2-yl)benzylamino)propanoic acid] |  | EC50 (S1P3): 50 to 5000 nM |
| CC(C)(C)[C@H]1CC[C@H](Oc2ccc(-c3csc(CNCCC(=O)O)n3)cc2)CC1 [Example 62, 3-(((4-(4-((trans-4-(tert-Butyl)cyclohexyl)oxy)phenyl)thiazol-2-yl)methyl)amino)propanoic acid] | 0.5 to 5 µM |  |
| CC(C)(C)[C@H]1CC[C@H](Oc2ccc(-n3cc(CN4CCC(C(=O)O)CC4)nn3)cc2)CC1 [Example 93, 1-((1-(4-(trans-4-tert-Butylcyclohexyloxy)phenyl)-1H-1,2,3-triazol-4-yl)methyl)piperidine-4-carboxylic acid] | 0.5 to 5 µM |  |
| CC(C)(C)[C@H]1CC[C@H](Oc2ccc(-c3cccc(CNCCC(=O)O)c3F)cc2)CC1 [Example 95] | 0.5 to 5 µM |  |
| O=C(O)C1CCN(Cc2cccc(-c3ccc(OC4CCC5(CCC5)CC4)cc3)c2F)C1 (centres unmarked) [Example 106, 1-((2-fluoro-4′-(spiro[3.5]nonan-7-yloxy)-[1,1′-biphenyl]-3-yl)methyl)pyrrolidine-3-carboxylic acid] | 0.5 to 5 µM |  |
| O=C(O)C1CCN(Cc2cccc(-c3ccc(OC4CCC5(CCCC5)CC4)cc3)c2F)C1 (centres unmarked) [Example 114, 1-((2-fluoro-4′-(spiro[4.5]decan-8-yloxy)-[1,1′-biphenyl]-3-yl)methyl)pyrrolidine-3-carboxylic acid] | 0.5 to 5 µM |  |
| O=C(O)C1CCCN(Cc2cccc(-c3ccc(OC4CCC5(CCCC5)CC4)cc3)c2F)C1 (centres unmarked) [Example 115, 1-((2-fluoro-4′-(spiro[4.5]decan-8-yloxy)-[1,1′-biphenyl]-3-yl)methyl)piperidine-3-carboxylic acid] | 0.5 to 5 µM |  |
| CC(C)[C@H]1CC[C@H](Oc2ccc(-c3cccc(CN4CCC(C(=O)O)C4)c3F)cc2)CC1 (some centres unmarked) [Example 138, 1-((2-fluoro-4′-(((1r,4r)-4-isopropylcyclohexyl)oxy)-[1,1′-biphenyl]-3-yl)methyl)pyrrolidine-3-carboxylic acid] | 0.5 to 5 µM |  |
| CC(C)[C@H]1CC[C@H](Oc2ccc(-c3cccc(CN4CCCC(C(=O)O)C4)c3F)cc2)CC1 (some centres unmarked) [Example 139, 1-((2-fluoro-4′-(((1r,4r)-4-isopropylcyclohexyl)oxy)-[1,1′-biphenyl]-3-yl)methyl)piperidine-3-carboxylic acid] | 0.5 to 5 µM |  |
| CC(C)[C@H]1CC[C@H](Oc2ccc(-c3cccc(CN4CCC(C(=O)O)CC4)c3F)cc2)CC1 [Example 140, 1-((2-fluoro-4′-(((1r,4r)-4-isopropylcyclohexyl)oxy)-[1,1′-biphenyl]-3-yl)methyl)piperidine-4-carboxylic acid] | 0.5 to 5 µM |  |
